The results in this text go back to ChEMBL document CHEMBL5233249, “Recent advancements in the development of heterocyclic anti-inflammatory agents” (Eur J Med Chem, 2020).

Experiment [1] deals with Rattus norvegicus. The experiment can be described thus: Anti-inflammatory activity in Carrageenan-induced rat paw edema in Wistar rat assessed as increase in paw edema volume relative to control. Type of experiment: functional.
Experiment [2] relates to Rattus norvegicus. The experiment can be described thus: Anti-inflammatory activity in Carrageenan-induced rat paw edema in Wistar rat assessed as increase in paw edema volume (reference value: 1.66 +/- 0.01). The experiment is classed as functional.
Experiment [3] concerns Rattus norvegicus. In words: Anti-inflammatory activity in Carrageenan-induced rat paw edema in Wistar rat assessed as increase in paw edema volume at 1 hr relative to control. The experiment is classed as functional.
The test system of experiment [4] is Rattus norvegicus. In words: Anti-inflammatory activity in Carrageenan-induced rat paw edema in Wistar rat assessed as increase in paw edema volume at 2 hr relative to control. Type of experiment: functional.
Experiment [5] deals with Rattus norvegicus. In words: Anti-inflammatory activity in Carrageenan-induced rat paw edema in Wistar rat assessed as increase in paw edema volume at 4 hr. Type of experiment: functional.
Experiment [6] concerns the target Prostaglandin G/H synthase 1 (Homo sapiens, UniProt P23219). In words: Inhibition of COX-1 (unknown origin) at 40 uM relative to control.
In experiment [7] the target is T1, Prostaglandin G/H synthase 1 (Ovis aries, UniProt P05979).
T1 sequence (P05979 whole entry): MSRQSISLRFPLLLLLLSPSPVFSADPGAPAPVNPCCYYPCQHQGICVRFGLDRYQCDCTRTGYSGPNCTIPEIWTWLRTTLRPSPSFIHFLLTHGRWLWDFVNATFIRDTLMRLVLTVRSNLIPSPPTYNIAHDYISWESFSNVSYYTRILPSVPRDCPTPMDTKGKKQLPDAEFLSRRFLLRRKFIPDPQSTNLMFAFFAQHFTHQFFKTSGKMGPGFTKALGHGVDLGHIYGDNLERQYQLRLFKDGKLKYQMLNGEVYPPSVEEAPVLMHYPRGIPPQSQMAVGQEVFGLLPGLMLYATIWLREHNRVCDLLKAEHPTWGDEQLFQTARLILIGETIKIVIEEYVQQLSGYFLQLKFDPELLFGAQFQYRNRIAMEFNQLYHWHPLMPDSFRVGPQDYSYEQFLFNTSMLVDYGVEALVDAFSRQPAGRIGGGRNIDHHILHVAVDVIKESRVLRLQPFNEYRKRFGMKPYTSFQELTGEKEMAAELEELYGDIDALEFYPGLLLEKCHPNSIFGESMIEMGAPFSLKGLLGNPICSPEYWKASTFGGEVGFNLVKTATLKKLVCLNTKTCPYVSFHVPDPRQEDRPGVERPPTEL
The experiment can be described thus: Inhibition of ovine COX-1 by EIA method.

The test system of experiment [8] is Rattus norvegicus. In words: Anti-inflammatory activity in Carrageenan-induced rat paw edema in Wistar rat assessed as increase in paw edema volume at 2 hr. The experiment is classed as functional.
Experiment [9] concerns Rattus norvegicus. The experiment can be described thus: Anti-inflammatory activity in Carrageenan-induced paw edema in Wistar rat assessed as inhibition of paw edema. Type of experiment: functional.
Experiment [10] relates to Rattus norvegicus. In words: Anti-inflammatory activity in Carrageenan-induced rat paw edema in Wistar rat assessed as increase in paw edema volume at 1 hr. Type of experiment: functional.
Experiment [11] has as its system Rattus norvegicus. The experiment can be described thus: Anti-inflammatory activity in Carrageenan-induced paw edema in Swiss albino rat assessed as inhibition relative to control. Type of experiment: functional.
Experiment [12] deals with Rattus norvegicus. The experiment can be described thus: Anti-inflammatory activity in Carrageenan-induced rat paw edema in Wistar rat assessed as increase in paw edema volume at 4 hr relative to control. Type of experiment: functional.
Experiment [13] concerns Rattus norvegicus. The experiment can be described thus: Anti-inflammatory activity in Carrageenan-induced paw edema in PO dosed Swiss albino rat model at 10 mg/kg assessed as inhibition in volume of edema measured after 1 hrs relative to control. The experiment is classed as functional.
Experiment [14] has as its system Rattus norvegicus. In words: Anti-inflammatory activity in Carageenan-induced foot paw edema in Sprague-Dawley rat at 50 mg/kg assessed as reduction in paw edema volume relative to control. Further details: scale not given: the % may be the effect or the level left. The experiment is classed as functional.
Experiment [15] relates to Rattus norvegicus. In words: Anti-inflammatory activity against Carrageenan-induced paw edema in PO dosed Wistar albino rat assessed as reduction in hind paw edema volume at 20 mg/kg relative to control. The experiment is classed as functional. Further details: scale not given: the % may be the effect or the level left.
Experiment [16] concerns Rattus norvegicus. The experiment can be described thus: Anti-inflammatory activity in Carrageenan-induced paw edema in PO dosed rat model at 20 mg/kg assessed as inhibition of paw edema measured after 4 hrs relative to control. The experiment is classed as functional.
In experiment [17] the test system is Rattus norvegicus. The experiment can be described thus: Anti-inflammatory activity in Carrageenan-induced paw edema in PO dosed rat model at 10 mg/kg assessed as inhibition of paw edema measured after 4 hrs relative to control. The experiment is classed as functional.
The test system of experiment [18] is Rattus norvegicus. In words: Anti-inflammatory activity in Carrageenan-induced paw edema in Wistar albino rat assessed as inhibition of edema measured after 1 hr relative to control. The experiment is classed as functional. Further details: scale not given: the % may be the effect or the level left.
The subject of experiment [19] is Rattus norvegicus. In words: Anti-inflammatory activity in Carrageenan-induced paw edema in Wistar albino rat assessed as inhibition of edema measured after 3 hr relative to control. Further details: scale not given: the % may be the effect or the level left. Type of experiment: functional.
Experiment [20] has as its system Rattus norvegicus. The experiment can be described thus: Anti-inflammatory activity in Carrageenan-induced paw edema in Wistar albino rat assessed as inhibition of edema measured after 5 hr relative to control. Type of experiment: functional. Further details: scale not given: the % may be the effect or the level left.
Experiment [21] addresses T2, Prostaglandin G/H synthase 2 (Homo sapiens, UniProt P35354).
T2 sequence (P35354 whole entry): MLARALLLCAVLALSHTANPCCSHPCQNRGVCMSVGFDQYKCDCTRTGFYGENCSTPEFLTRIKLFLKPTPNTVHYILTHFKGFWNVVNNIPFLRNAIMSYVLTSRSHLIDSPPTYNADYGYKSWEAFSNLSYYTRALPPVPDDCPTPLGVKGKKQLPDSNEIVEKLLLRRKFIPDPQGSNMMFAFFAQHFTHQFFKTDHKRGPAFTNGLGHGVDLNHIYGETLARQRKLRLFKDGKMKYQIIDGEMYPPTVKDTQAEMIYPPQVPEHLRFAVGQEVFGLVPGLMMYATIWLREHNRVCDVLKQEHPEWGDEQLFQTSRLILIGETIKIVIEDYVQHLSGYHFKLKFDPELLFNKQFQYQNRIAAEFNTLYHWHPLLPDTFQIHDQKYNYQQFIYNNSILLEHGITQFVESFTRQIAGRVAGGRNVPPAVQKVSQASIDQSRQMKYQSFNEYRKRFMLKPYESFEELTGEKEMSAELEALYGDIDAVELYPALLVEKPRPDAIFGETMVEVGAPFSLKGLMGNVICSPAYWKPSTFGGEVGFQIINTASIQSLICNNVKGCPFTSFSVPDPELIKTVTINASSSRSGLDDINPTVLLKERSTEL
The experiment can be described thus: Inhibition of human COX-2 assessed as by fluorescence based microplate reader assay.

Experiment [22] relates to Mus musculus. The experiment can be described thus: Anti-inflammatory activity against Carrageenan-induced paw edema in mouse model assessed as inhibition of edema at 100 mg/kg measured after 4 hrs relative to control. Type of experiment: functional. Further details: scale not given: the % may be the effect or the level left.
Experiment [23] relates to Rattus norvegicus. In words: Ulcerogenic activity in Swiss albino Wistar rat assessed as ulcer lesion score at 100 mg/kg, po. Type of experiment: functional.
Experiment [24] concerns Rattus norvegicus. In words: Anti-inflammatory activity in Carrageenan-induced rat paw edema in Wistar rat assessed as reduction in inhibition of edema measured after 4 hrs relative to control. The experiment is classed as functional. Further details: scale not given: the % may be the effect or the level left.
Experiment [25] is described as follows: Anti-inflammatory activity assessed as protein denaturation using bovine serum albumin relative to control. The experiment is classed as functional.
A short description of experiment [26]: Inhibition of MAPK p38 (unknown origin). Further details: species or system Homo sapiens.
For experiment [27], the system named is Mus musculus. In words: Anti-inflammatory activity in Carrageenan-induced paw edema mouse model assessed as inhibition of granuloma measured after 24 hrs relative to control. The experiment is classed as functional.
The subject of experiment [28] is Mus musculus. In words: Analgesic activity in PO dosed Swiss albino mouse assessed as protection of paw edema measured after 2 hrs at 20 mg/kg relative to control. The experiment is classed as functional.
Experiment [29] relates to Rattus norvegicus. In words: Anti-inflammatory activity against formalin-induced foot paw edema in PO dosed rat at 10 mg/kg assessed as inhibition of edema measured after 1 hr relative to control. Type of experiment: functional. Further details: scale not given: the % may be the effect or the level left.
The test system of experiment [30] is Rattus norvegicus. The experiment can be described thus: Anti-inflammatory activity against formalin-induced foot paw edema in Wistar rat at 5 mg/kg, po assessed as inhibition of edema measured after 4 hr relative to control. The experiment is classed as functional.

Each structure is given as a SMILES string.

Prostaglandin G/H synthase 1 (Homo sapiens, UniProt P23219), sequence (P23219 whole entry): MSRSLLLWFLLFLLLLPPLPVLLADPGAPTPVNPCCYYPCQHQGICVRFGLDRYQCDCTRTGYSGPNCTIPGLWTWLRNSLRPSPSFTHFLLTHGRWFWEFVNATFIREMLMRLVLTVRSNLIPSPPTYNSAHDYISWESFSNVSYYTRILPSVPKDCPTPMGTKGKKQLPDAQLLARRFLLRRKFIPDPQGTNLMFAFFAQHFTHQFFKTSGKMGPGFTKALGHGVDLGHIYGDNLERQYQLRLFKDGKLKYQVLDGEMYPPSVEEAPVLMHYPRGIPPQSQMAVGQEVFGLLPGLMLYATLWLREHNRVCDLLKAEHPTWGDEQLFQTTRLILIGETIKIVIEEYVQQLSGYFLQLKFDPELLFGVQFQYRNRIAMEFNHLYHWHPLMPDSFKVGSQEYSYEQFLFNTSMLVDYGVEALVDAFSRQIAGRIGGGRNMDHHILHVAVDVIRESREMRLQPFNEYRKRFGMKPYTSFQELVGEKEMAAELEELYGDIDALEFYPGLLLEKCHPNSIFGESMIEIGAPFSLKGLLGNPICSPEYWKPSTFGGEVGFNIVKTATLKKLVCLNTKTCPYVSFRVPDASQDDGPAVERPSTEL

As to `C[C@H](NC(=O)c1nc2c(cnn2-c2ccccc2)c(=O)[nH]1)c1ccccc1`, the “inhibition (INH)” value in experiment [1] is given as 64%; in experiment [3] it was 64%; in [4] it was 65%; in experiment [11], 51%; in experiment [12] it was 64%. Besides, the Activity in experiment [2] came out at 1.05 mL; in [5] it was 2.01 mL; in experiment [8] it was 1.69 mL; in experiment [10] it was 1.5 mL. This compound had an inhibition in [6] of 73.4%. In experiment [7], this compound returned an IC50 of 28.4 µM. Further, in experiment [9], the 50% effective dose (ED50) worked out at 7.6 mg/kg.
`Cc1c(-c2ccccc2)n(C(=O)c2ccc(Cl)cc2)c2ccc(S(C)(=O)=O)cc12`: the inhibition in vivo at 10 mg/kg in experiment [13] came out at 73.5%.
`CC1=C(c2ccc(C(=O)NNC(=S)Nc3ccccc3)cn2)SC2Nc3ccccc3N12` (stereo not given): the half-maximal inhibitory concentration (IC50) in [7] came out at 0.044 µM. In addition, the Activity in experiment [14] came out at 79.5%.
Regarding `COc1ccc(N/N=C2\C(=O)N(CNc3c(C)cccc3C)N=C2Nc2ccccc2F)cc1`, the Activity in [15] came out at 51%.
`CCCOC(=O)c1nc2c(cnn2-c2ccccc2)c(=O)[nH]1`: the “inhibition (INH)” value in experiment [1] worked out at 40%; in experiment [3], 40%; in experiment [4], 51%; in experiment [11], 36%; in experiment [12], 55%. For the same compound, the Activity was 0.9 mL in [2], 2.11 mL in experiment [5], 1.8 mL in experiment [8] and 1.66 mL in [10]. In addition, in [6], the inhibition came to 86%. In addition, half-maximal inhibition in experiment [7] (IC50) was put at 19.5 µM. Also, in [9], the ED50 worked out at 8.3 mg/kg.
Regarding `Cc1nn(-c2ccccc2)c2c1C(c1ccccc1Cl)N1C=CC=NC1=N2` (stereo not given), the inhibition in vivo at 20 mg/kg in [16] stood at 86%. Also, the inhibition in vivo at 10 mg/kg in experiment [17] worked out at 73%.
With `CSc1nn(-c2ccc(S(C)(=O)=O)cc2)c2ncnc(NCC(=O)/N=C/c3ccco3)c12`, the Activity in experiment [18] came to 2%; in experiment [19], 79%; in [20] it was 88%. The figures for the IC50 in experiment [7] and in experiment [21] were 123 µM and 0.1 µM, respectively.
For the compound `O=C(NCn1c(-c2ccccc2Cl)nc2ccccc21)c1ccc(Cl)cc1`, the figures for the Activity in experiment [22] and in [23] were 62.5% and 13.53 mm, respectively.
In the case of `COc1ccc(NC(=O)c2ccc(Nc3ncnc4c3cnn4-c3ccccc3)cc2)cc1`, the Activity in experiment [24] amounted to 76.35%; in [25] it was 80.2%. Also, in experiment [26], 0.038 µM corresponded to half-maximal inhibition (IC50).
Take `O=C(O)Cc1ccccc1Nc1c(Cl)cccc1Cl` [DICLOFENAC]: the “inhibition (INH)” value in experiment [27] is recorded as 36.1%. The Activity in [23] stood at 32.5 mm; in [28] it was 65%; in [29] it was 30.43%. For the same compound, the inhibition in vivo at 5 mg/kg in experiment [30] is 50%.
